Measurements from a melting point compilation (Tetko et al.; mined from patent text by program, amines drawn as free bases though some values may be those of a salt).

SMILES | melting point [°C]
CO[C@H]1CN(c2c(F)c(N)c3c(=O)c(C(=O)O)cn([C@@H]4C[C@@H]4F)c3c2C)C[C@@H]1C1(N)CC1 | 202 to 204
CC(C)(C)OC(=O)NC(C(=O)O)C1(O)CCOCC1 (centres undefined) | 140 to 141
CCCCS(=O)(=O)NC(=O)C[C@H]1O[C@H](c2cccc(OC)c2OC)c2cc(Cl)ccc2N(CC(C)(C)CO)C1=O | 123 to 125
O=C1c2c(Sc3ccccc3)ccc(Sc3ccc(O)cc3)c2C(=O)c2c(Sc3ccccc3)ccc(Sc3ccc(O)cc3)c21 | > 340
CC(C)(C)[Si](C)(C)OCc1ccc(C(=NO)C(F)(F)F)cc1 | 63 to 65
CCCCOP(=O)(C/C=C/CC1(C(=O)NCCC)c2cc(F)ccc2-c2ccc(F)cc21)OCCCC | 142 to 146
O=Cc1c(Cl)ccc(C(=O)O)c1Cl | 188 to 190
CCCCCCCCCCCCCCCCCc1nc(C(C)N)c[nH]1 (centres undefined) | 38 to 40
CCOC(=O)C(=C1SC=C(O)S1)S(C)(=O)=O | 145 to 147
O=C(O)CC(CCc1ccc(O)cc1)CC(=O)O | 142 to 144
O=S(=O)(c1ccc(C(F)(F)F)cc1)N1c2cc(F)c(F)cc2-c2[nH]ncc2[C@H]1C1CC1 | 137 to 138
CON=C(C(=O)N(C)C)C(C)=NOCc1ccc(C)cc1 | 68 to 69
CCCCCCCCC[C@@H](CC(N)=O)N(CCC)C(=O)[C@H](CCCC(=O)O)NC(=O)c1cn(Cc2ccccc2)c2ccccc12 | 155 to 160
Nc1ccc(C(c2cccc(N)c2)(C(F)(F)F)C(F)(F)F)cc1 | 142 to 143
CCOc1nn(-c2cc(C(F)(F)F)ccn2)cc1CCCOc1cccc(CC(=O)O)c1 | 128 to 130
Cc1ccc(Cl)cc1S(N)(=O)=O | 142 to 145
Cc1ccc2c(c1)C(=O)C[C@H]1CCN(C)C[C@H]21 (relative stereo) | > 250
CCCCS(=O)(=O)N1C(SCc2ccc(OC)cc2)=NC(C)(c2cccc([N+](=O)[O-])c2)C(C)(C(=O)OCC)C1c1cccc([N+](=O)[O-])c1 (centres undefined) | 66 to 68
CN(C)C=Nc1c(S(=O)C(F)(F)F)c(-c2ncon2)nn1-c1c(Cl)cc(C(F)(F)F)cc1Cl (centres undefined) | 140
O=CN1CCC2=C(CCCC2)C1Cc1ccc(O)cc1 (centres undefined) | 154 to 156
COc1cnc(N2CCN(c3ccc(N)cc3)CC2)nc1 | 125
CN1C(=O)C(NC(=O)CCc2ccc(Cl)cc2Cl)N=C(c2ccccc2)c2ccncc21 (centres undefined) | 220 to 221
CC(=O)NC[C@H]1CN(c2ccc(N3CCN(C(=O)CCC(=O)c4ccc(Br)cc4)CC3)c(F)c2)C(=O)O1 | 197 to 198
COc1cc([N+](=O)[O-])c2nccc(C)c2c1OC | 123 to 125
CC(C)c1ccc([N+](=O)[O-])c(C(C)C)c1NC(=O)CN1CCN(CCSc2nc3cccc(C(F)(F)F)c3o2)CC1 | 115 to 117
N[C@@H](C[C@@H](CC#Cc1ccccc1)C(=O)O)C(=O)O | 164 to 166
O=[N+]([O-])c1cccc2c1c([N+](=O)[O-])cc1nc(O)c(O)nc12 | > 300
CCn1ncc2c(Cl)c3cc(Br)ccc3nc21 | 117 to 118
O=c1sc2cc(C(F)(F)F)cc([N+](=O)[O-])c2s1 | 110 to 111

The next lines start with the values.

melting point [°C] | SMILES
190 to 192 | NC(=O)c1ccccc1NC(=S)NC(=O)c1ccccc1
137 to 140 | NC(=S)NN=C(CCCOC(=O)NCc1ccccc1)c1ccccc1
190 to 194 | CCCCc1oc2ccccc2c1C(=O)N(C)Cc1ccc2c(Br)c(OCc3nnn[nH]3)ccc2c1
116 | CC(C)(C)N1C(=O)CN(c2ccccc2)C1=O
220 | CC1(C)CC(NC(=O)c2ccc(-c3cc4cc(Cl)c(Cl)cc4[nH]3)c(OCc3ccccc3)c2)CC(C)(C)N1
79 to 80 | OCc1cn(Cc2ccccc2)nc1OCc1ccccc1
135 to 136 | Cc1nccn1-c1cccc(Nc2ccc(I)cc2[N+](=O)[O-])c1
119 to 120 | O=C(O)c1cn(Cc2ccc(OCc3csc(-c4ccccc4)n3)cc2)nc1-c1ccccc1
99 to 100 | COCCNC(=O)c1cccc(-c2ccc3c(c2)N(c2cccc(Cl)c2Cl)CC3)c1
267 to 269 | CC(=O)c1c(-c2ccc(Cl)cc2)c(-c2ccc(Cl)cc2)n[nH]c1=O
175 to 177 | COc1ccccc1C1OC(=O)NC1=O (centres undefined)
172 | NS(=O)(=O)c1ccc(-n2nc(C(F)(F)F)cc2-c2ccc(-c3ccco3)c(Cl)c2)cc1F
185 to 187 | CCc1nc(S(=O)(=O)Nc2c(Cl)cccc2Cl)nn1-c1ccccc1
250 | CC1(C)Oc2ccc(Cl)cc2[C@@H](n2ccccc2=O)[C@@H]1O (relative stereo)
187 to 188 | N#Cc1c(N)n[nH]c1-c1ccc(Oc2ccccc2)cc1
108 to 110 | Cn1cccc1C(=O)c1ccc2ccccc2c1
76 to 77 | Cc1c(C)n2c3c(cccc13)CCc1ccccc1-2
131 to 132 | CC1(C)CC(=C(c2ccccc2)c2ccc(OCCO)cc2)CC(C)(C)C1
179 to 180 | CC(=O)OC1C(COC(=O)c2ccccc2)OC(n2ccc(=O)[nH]c2=O)C1F (centres undefined)
124 to 125 | CCOC(=O)c1cn(Cc2ccc(OCc3ccccc3)cc2)nc1OCc1ccc(OCc2ccccc2)cc1
